The values that follow come from patent US20020128231A1 (priority 2000, published 2002).

The structures appear in SMILES notation.

Data set [1] deals with MDR1-expressing NIH 3T3 cells. Description: Cytotoxicity (MTT) assay: modulation of drug cytotoxicity in multidrug resistant cells. The conditions noted are these: compound 5 μM; 50 nM doxorubicin; 72 hours; MTT.
Description: Cytotoxicity assays were performed with many of the compounds of Formula I to verify their usefulness as inhibitors of P-gp.
Parental NIH3T3 Swiss mouse embryo cell line was obtained from American Type Culture Collection and was grown in Dulbecco's Modified Eagles Medium supplemented with 4.5 g/L glucose, 10% fetal bovine serum, 2 mM L-glutamine, and 0.01 mg/ml gentamicin. […] All cells were maintained in a humidified atmosphere with 5% CO2 at 37° C.
Parental and MDR1-expressing NIH 3T3 cells were plated at a density of 2.5-3.0×10^3 cells/well in 96-well microtiter plates and were exposed to 50 nM of doxoriubicin, 7.5 nM vinblastine, 75 nM colchicine or 300 nM paclitaxel for 72 hours. Cell viability was determined with the colorimetric MTT (3-(4,5-dimethylthiazol-2-yl)-2,5-diphenyl tetrazolium) assay as previously described (Mosmann T., J. Immunol. Methods, 65: 55-63 (1983); Hansen M. B. et al., J. Immunol. Methods, 119: 203-210 (1989)) and the absorbance was measured at 570 nm.
A further data set addresses P-glycoprotein (Homo sapiens, UniProt P08183). Description: Rhodamine 123 transport assay across HCT-8 cell monolayers. Particulars: compound 10 μM, Rh123 15 μM, HCT-8 cells; for inhibition at 10 μM: human, HCT-8 cell monolayers in Transwell dishes, probe Rhodamine 123 (15 μM), % Inhibition of R123 Transport.

P-glycoprotein, sequence (P08183 whole entry): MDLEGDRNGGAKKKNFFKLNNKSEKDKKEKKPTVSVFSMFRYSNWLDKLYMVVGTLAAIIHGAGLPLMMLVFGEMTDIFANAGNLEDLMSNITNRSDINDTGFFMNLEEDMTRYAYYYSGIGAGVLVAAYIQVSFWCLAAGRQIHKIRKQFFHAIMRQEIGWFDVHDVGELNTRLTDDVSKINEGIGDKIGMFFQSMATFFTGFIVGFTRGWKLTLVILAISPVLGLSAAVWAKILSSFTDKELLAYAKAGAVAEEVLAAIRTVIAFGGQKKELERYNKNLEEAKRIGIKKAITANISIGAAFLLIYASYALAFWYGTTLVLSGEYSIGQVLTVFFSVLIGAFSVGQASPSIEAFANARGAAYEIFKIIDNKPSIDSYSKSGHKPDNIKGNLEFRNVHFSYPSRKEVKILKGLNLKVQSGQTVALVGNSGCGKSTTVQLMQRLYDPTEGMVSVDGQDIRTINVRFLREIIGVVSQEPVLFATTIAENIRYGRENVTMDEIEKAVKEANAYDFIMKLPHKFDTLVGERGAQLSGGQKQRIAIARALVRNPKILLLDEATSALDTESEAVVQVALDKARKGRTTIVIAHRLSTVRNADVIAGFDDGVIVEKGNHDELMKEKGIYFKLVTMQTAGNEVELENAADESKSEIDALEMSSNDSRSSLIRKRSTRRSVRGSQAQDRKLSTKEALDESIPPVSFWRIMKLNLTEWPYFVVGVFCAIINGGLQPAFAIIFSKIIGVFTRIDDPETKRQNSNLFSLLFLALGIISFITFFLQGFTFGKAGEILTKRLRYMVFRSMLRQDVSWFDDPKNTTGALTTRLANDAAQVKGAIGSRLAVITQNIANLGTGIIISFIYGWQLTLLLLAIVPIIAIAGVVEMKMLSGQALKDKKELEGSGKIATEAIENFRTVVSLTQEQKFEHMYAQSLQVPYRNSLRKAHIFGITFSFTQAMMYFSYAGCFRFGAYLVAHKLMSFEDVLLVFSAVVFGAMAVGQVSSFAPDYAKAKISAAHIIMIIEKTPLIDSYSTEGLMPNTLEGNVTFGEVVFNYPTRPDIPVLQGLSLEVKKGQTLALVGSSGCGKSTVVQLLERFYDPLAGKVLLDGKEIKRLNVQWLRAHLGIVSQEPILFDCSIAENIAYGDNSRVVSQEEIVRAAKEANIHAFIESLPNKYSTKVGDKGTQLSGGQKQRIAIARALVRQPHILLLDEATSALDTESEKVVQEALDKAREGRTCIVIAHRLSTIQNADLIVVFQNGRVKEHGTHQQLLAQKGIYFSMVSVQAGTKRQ
Description for P-glycoprotein: The human ileocecal adenocarcinoma cell line HCT-8 was grown in RPMI-1640 medium supplemented with 10% horse serum, 1 mM sodium pyruvate and 0.01 mg/ml gentamicin. All cells were maintained in a humidified atmosphere with 5% CO2 at 37° C.
Rhodamine 123 transport was examined as previously described (Hunter J. et al., Simmons, Br. J. Cancer, 64: 437444 (1991); Kim A. E. et al., J. Pharm. Exp. Ther., 286: 1439-1445 (1998)) using HCT-8 cells. Particularly, cells were grown in 6 well Corning Transwell dishes until a tight monolayer was formed. Rh123 was added at a final concentration of 15 μM to the basal or apical compartments and 200 μl samples were taken at the indicated times from the opposite chamber. Fluorescence of Rh123 in the media samples was measured using a fluorescence plate reader with an excitation wavelength of 485 nm and an emission wavelength of 530 nm.

Turning to `COCC1C(CCOS(C)(=O)=O)c2cc(OC)c(OC)cc2C1c1ccc(OC)c(OC)c1` (centres unmarked) [AV-177, methanesulfonic acid 2-[3-(3,4-dimethoxyphenyl)-5,6-dimethoxy-2-methoxymethyl-indan-1-yl] ethyl ester], the “Modulation of Drug Resistance (percentage increase in doxorubicin cytotoxicity in the presence of the compounds versus in their absence)” value in data set [1] turned out to be 40.32%. For the same compound, the “% Inhibition of R123 Transport” value at P-glycoprotein was found to be 9.4%.

In the case of `COCC1C(CCN2CCN(Cc3ccccc3)CC2)c2cc(OC)c(OC)cc2C1c1ccc(OC)c(OC)c1` (centres unmarked) [AV-178, 1-benzyl-4-{2-[3-(3,4-dimethoxyphenyl)-5,6-dimethoxy-2-methoxymethyl-indan-1-yl]-ethyl}-piperazine], the “Modulation of Drug Resistance (percentage increase in doxorubicin cytotoxicity in the presence of the compounds versus in their absence)” value in data set [1] stood at 54.50%. Moreover, the inhibition at 10 μM at P-glycoprotein came out at 79%.

`COc1ccc(C2c3cc(OC)c(OC)cc3C(CC(=O)N3CCN(C(=O)OCc4ccccc4)CC3)C2C(=O)N2CCN(C(=O)OCc3ccccc3)CC2)cc1OC` (centres unmarked) [AV-179, 4-{2-[3-(3,4-dimethoxyphenyl)-5,6-dimethoxy-2-(piperazine-1-carboxylic acid benzyl ester)-indan-1-yl]-acetyl}-piperazine-1-carboxylic acid benzyl ester]: the “Modulation of Drug Resistance (percentage increase in doxorubicin cytotoxicity in the presence of the compounds versus in their absence)” value in data set [1] is recorded as 58.07%. Further, the “% Inhibition of R123 Transport” value on P-glycoprotein turned out to be 87.7%.

Turning to `COc1ccc(C2c3cc(OC)c(OC)cc3C(CC(=O)N3CCN(C(=O)OC(C)(C)C)CC3)C2C(=O)N2CCN(C(=O)OC(C)(C)C)CC2)cc1OC` (centres unmarked) [AV-180, 4-{2-[3-(3,4-dimethoxyphenyl)-5,6-dimethoxy-2-(piperazine-1-carboxylic acid t-butyl ester)-indan-1-yl]-acetyl}-piperazine-1-carboxylic acid t-butyl ester], the “Modulation of Drug Resistance (percentage increase in doxorubicin cytotoxicity in the presence of the compounds versus in their absence)” value in data set [1] amounted to 42.84%. Moreover, the “% Inhibition of R123 Transport” value at P-glycoprotein was 40.4%.

Take `COc1ccc(C2c3cc(OC)c(OC)cc3C(CC(=O)N(C)C)C2C(=O)N(C)C)cc1OC` (centres unmarked) [AV-181, 1-(3,4-dimethoxyphenyl)-3-dimethylcarbamoylmethyl-5,6-dimethoxy-indan-2-carboxylic acid dimethyl amide]: the “Modulation of Drug Resistance (percentage increase in doxorubicin cytotoxicity in the presence of the compounds versus in their absence)” value in data set [1] was 6.13%. Also, the inhibition at 10 μM on P-glycoprotein stood at 6%.

Consider `CCN(CC)C(=O)CC1c2cc(OC)c(OC)cc2C(c2ccc(OC)c(OC)c2)C1C(=O)N(CC)CC` (centres unmarked) [AV-182, 1-(3,4-dimethoxyphenyl)-3-diethylcarbamoylmethyl-5,6-dimethoxy-indan-2-carboxylic acid diethyl amide], for which the “Modulation of Drug Resistance (percentage increase in doxorubicin cytotoxicity in the presence of the compounds versus in their absence)” value in data set [1] turned out to be 23.87%. On P-glycoprotein, the inhibition at 10 μM was 25%.

As for `COc1ccc(N2CCN(CCC3c4cc(OC)c(OC)cc4C(c4ccc(OC)c(OC)c4)C3CN3CCN(c4ccc(OC)cc4)CC3)CC2)cc1` (centres unmarked) [AV-183, 2-{3-(3,4-dimethoxyphenyl)-5,6-dimethoxy-2-[4-(4-methoxy)-piperazin-1-yl-methyl]-indan-1-yl}-1-[4-(4-methoxyphenyl)-piperazin-1-yl]-ethane], the “Modulation of Drug Resistance (percentage increase in doxorubicin cytotoxicity in the presence of the compounds versus in their absence)” value in data set [1] was determined as 52.24%. The “% Inhibition of R123 Transport” value on P-glycoprotein is given as 63.0%.

For the compound `CCOc1ccccc1N1CCN(CCC2c3cc(OC)c(OC)cc3C(c3ccc(OC)c(OC)c3)C2CN2CCN(c3ccccc3OCC)CC2)CC1` (centres unmarked) [AV-184, 2-{3-(3,4-dimethoxyphenyl)-5,6-dimethoxy-2-[4-(2-ethoxyphenyl)-piperazin-1-yl-methyl]-indan-1-yl}-1-[4-(2-ethoxyphenyl)-piperazin-1-yl]-ethane], in data set [1], the “Modulation of Drug Resistance (percentage increase in doxorubicin cytotoxicity in the presence of the compounds versus in their absence)” value turned out to be 50.58%. On P-glycoprotein, this compound yielded an inhibition at 10 μM of 53.7%.

As to `COc1ccc(C2c3cc(OC)c(OC)cc3C(CC(=O)N3CCNCC3)C2C(=O)N2CCNCC2)cc1OC` (centres unmarked) [AV-185, 2-[3-(3,4-dimethoxyphenyl)-5,6-dimethoxy-2-(piperazine-1-carbonyl)-indan-1-yl]-1-piperazin-1-yl-ethanone], the “Modulation of Drug Resistance (percentage increase in doxorubicin cytotoxicity in the presence of the compounds versus in their absence)” value in data set [1] turned out to be 18.48%. The compound further showed an inhibition at 10 μM at P-glycoprotein of 25.1%.

As for `COc1ccc(C2c3cc(OC)c(OC)cc3C(CCN3CCN(c4ccc(Cl)cc4)CC3)C2CN2CCN(c3ccc(Cl)cc3)CC2)cc1OC` (centres unmarked) [AV-186, 2-{3-(3,4-dimethoxyphenyl)-5,6-dimethoxy-2-[4-(4-chlorophenyl)-piperazin-1-yl-methyl]-indan-1-yl}-1-[4-(4-chlorophenyl)-piperazin-1-yl]-ethane], in data set [1], the “Modulation of Drug Resistance (percentage increase in doxorubicin cytotoxicity in the presence of the compounds versus in their absence)” value worked out at 64.87%. The compound also came in with an inhibition at 10 μM at P-glycoprotein of 65.8%.

As to `CCN1CCN(C(=O)CC2c3cc(OC)c(OC)cc3C(c3ccc(OC)c(OC)c3)C2C(=O)N2CCN(CC)CC2)CC1` (centres unmarked) [AV-187, 2-[3-(3,4-dimethoxyphenyl)-5,6-dimethoxy-2-(4-ethylpiperazine-1-carbonyl)-indan-1-yl]-1-(4-ethylpiperazin-1-yl)-ethanone], the “Modulation of Drug Resistance (percentage increase in doxorubicin cytotoxicity in the presence of the compounds versus in their absence)” value in data set [1] was determined as 23.50%. The inhibition at 10 μM at P-glycoprotein amounted to 2.7%.

On to `COc1ccc(C2c3cc(OC)c(OC)cc3C(CC(=O)N3CCN(c4ccccc4OC)CC3)C2C(=O)N2CCN(c3ccccc3OC)CC2)cc1OC` (centres unmarked) [AV-188, 2-{3-(3,4-dimethoxyphenyl)-5,6-dimethoxy-2-[4-(2-methoxyphenyl)-piperazin-1-carbonyl]-indan-1-yl}-1-[4-(2-methoxy-phenyl)-1-yl]-ethanone], for which the “Modulation of Drug Resistance (percentage increase in doxorubicin cytotoxicity in the presence of the compounds versus in their absence)” value in data set [1] is given as 75.39%. In addition, the “% Inhibition of R123 Transport” value on P-glycoprotein was determined as 87.6%.

With `CCCN(CCC)C(=O)CC1c2cc(OC)c(OC)cc2C(c2ccc(OC)c(OC)c2)C1C(=O)N(CCC)CCC` (centres unmarked) [AV-189, 1-(3,4-dimethoxyphenyl)-3-dipropylcarbamoylmethyl-5,6-dimethoxy-indan-2-carboxylic acid dipropyl amide], the “Modulation of Drug Resistance (percentage increase in doxorubicin cytotoxicity in the presence of the compounds versus in their absence)” value in data set [1] is on record as 64.78%. Further, the inhibition at 10 μM against P-glycoprotein came out at 60%.

With `CCCCN(CCCC)C(=O)CC1c2cc(OC)c(OC)cc2C(c2ccc(OC)c(OC)c2)C1C(=O)N(CCCC)CCCC` (centres unmarked) [AV-190, 1-(3,4-dimethoxyphenyl)-3-dibutylcarbamoylmethyl-5,6-dimethoxy-indan-2-carboxylic acid dibutyl amide], the “Modulation of Drug Resistance (percentage increase in doxorubicin cytotoxicity in the presence of the compounds versus in their absence)” value in data set [1] was determined as 65.35%. For the same compound, the inhibition at 10 μM against P-glycoprotein amounted to 52.2%.

Turning to `COc1ccc(C2c3cc(OC)c(OC)cc3C(CC(=O)N(CC(C)C)CC(C)C)C2C(=O)N(CC(C)C)CC(C)C)cc1OC` (centres unmarked) [AV-191, 1-[(diisobutylcarbamoyl)methyl]-3-(3,4-dimethoxyphenyl)-5,6-dimethoxy-indan-2-carboxylic acid diisobutylamide], the “Modulation of Drug Resistance (percentage increase in doxorubicin cytotoxicity in the presence of the compounds versus in their absence)” value in data set [1] is given as 63.49%. Besides, on P-glycoprotein, the inhibition at 10 μM is 64.9%.

Consider `CCCCC(CC)CN(CC(CC)CCCC)C(=O)CC1c2cc(OC)c(OC)cc2C(c2ccc(OC)c(OC)c2)C1C(=O)N(CC(CC)CCCC)CC(CC)CCCC` (centres unmarked) [AV-192, 1-{[bis(2-ethylhexyl)carbamoyl]methyl}-3-(3,4-dimethoxyphenyl)-5,6-dimethoxy-indan-2-carboxylic acid bis(2-ethylhexyl) amide], for which, in data set [1], the “Modulation of Drug Resistance (percentage increase in doxorubicin cytotoxicity in the presence of the compounds versus in their absence)” value is recorded as 19.61%. Further, the inhibition at 10 μM against P-glycoprotein stood at 20.2%.
